{
  "source": "patent US20140274927A1",
  "about": "“TNF-Related Biomarkers For Assessing Cancer Cell Response To Treatment With Taxane And/Or Anthracycline Drugs” (priority 2013, published 2014)",
  "key": {"[1]": {"system": "monocyte TNF levels", "settings": "gastric cancer patients, chemotherapy; cited from earlier work"}, "[2]": {"system": "A2780 ovarian tumour cells", "settings": "cited from earlier work"}, "[3]": {"system": "MCF-7CC cells", "experiment": "Clonogenic assay", "experimental": "(§1) Cellular sensitivity to TNFα or docetaxel was assessed using a clonogenic assay as described previously. Docetaxel resistance factors for the cell lines were determined by dividing the IC50 for docetaxel in the taxane-resistant cell lines by the IC50 for MCF-7CC cells. […] (SN-50, 7 μg/ml). A control peptide at the same concentration (SN-50M) was used in the latter experiments to assess the specificity of NF-κB inhibition."}, "[4]": {"system": "MCF-7TXT cells", "experiment": "Clonogenic assay", "experimental": "(§2) MCF-7 cells from the American Tissue Culture Collection (catalog number HTB-22) were cultured or selected for survival in increasing doses of docetaxel or paclitaxel as previously described [17;18]. The initial concentrations of docetaxel and paclitaxel used to begin selection (dose 1) were 0.51 and 0.56 nM, respectively. Cells selected to docetaxel concentrations of 1.11 nM (dose 8, MCF-7TXT8), 3.33 nM (dose 9, MCF-7TXT9), 5.00 nM (dose 10, MCF-7TXT10), 15 nM (dose 11, MCF-7TXT11), and 45 nM (dose 12, MCF-7TXT12) were used in this study. Numbers in subscripts of cell line names refer to the maximum docetaxel dose level to which the cells were exposed. The paclitaxel resistant cell line used in this study was selected in an identical manner to a final concentration of 6.64 nM paclitaxel (MCF-7TAX-1 cells; hyphenated number indicates the first cell line selection, not drug dose). […] A2780 ovarian carcinoma cells from the European Collection of Cell Cultures were also selected for resistance to docetaxel in an identical manner (A2780DXL cells), including the creation of “co-cultured control” A2780CC cells.\nas §1"}, "[5]": {"settings": "breast cancer patients following docetaxel infusion; cited from earlier work"}, "[6]": {"system": "NF-κB p65 and p50 subunits", "experiment": "NF-κB activity in nuclear extracts (TransAM NF-κB Family ELISA)", "type": "cell-based, human", "settings": "MCF-7CC and MCF-7TXT cells, 50 nM docetaxel 24 hours; except selection doses >15 nM (dose 11 and 12)", "experimental": "MCF-7CC and MCF-7TXT cells were cultured in the presence or absence of 50 nM docetaxel for 24 hours. The activity of the NF-κB p65 and p50 subunits in 10 μg of nuclear extracts was assessed as outlined in the TransAM™ NF-κB Family ELISA kit (Active Motif™, Carlsbad, Calif.). Readings at 450 nm were normalized to the sum of all readings on the plate in order to compare across triplicate experiments."}, "[7]": {"system": "A2780 cells", "experiment": "sTNFα in cell culture medium by ELISA", "type": "cell-based, human", "experimental": "(§3) Concentrated proteins from the medium of two million MCF-7CC, MCF-7TXT or A2780 cells (grown in culture in the absence or presence of various concentrations of paclitaxel or docetaxel) were assessed for levels of sTNFα or sTNFR1 using ELISA kits from R&D Systems™, following the manufacturer's instructions."}, "[8]": {"system": "MCF-7TXT cells", "experiment": "sTNFα in cell culture medium by ELISA", "type": "cell-based, human", "settings": "for sTNFα levels: 50 nM docetaxel", "experimental": "as §3"}, "[9]": {"system": "MCF-7CC cells", "experiment": "sTNFα in cell culture medium by ELISA", "type": "cell-based, human", "experimental": "as §3"}, "[10]": {"system": "murine macrophages", "settings": "cited from earlier work"}, "[11]": {"system": "serum levels of proinflammatory cytokines, including TNFα", "settings": "castration-resistant prostate cancer patients, two days after administration; cited from earlier work"}, "[12]": {"system": "MCF-7TAX-1 cells", "settings": "cited from earlier work"}, "[13]": {"system": "A2780DXL cells", "experiment": "Clonogenic assay", "type": "cell-based, human", "settings": "A2780DXL cells at maximally tolerated dose (405 nM)", "experimental": "as §2, §1"}, "[14]": {"system": "MCF-7TAX-1 cells", "experiment": "sTNFα in cell culture medium by ELISA", "type": "cell-based, human", "settings": "presence or absence of docetaxel"}, "[15]": {"system": "MCF-7TXT cells", "settings": "cited from earlier work"}, "[16]": {"system": "C2C12 myotubes", "settings": "cited from earlier work"}, "[17]": {"system": "MCF-7TAX-1 cells", "experiment": "Clonogenic assay", "type": "cell-based, human", "experimental": "as §2, §1"}},
  "note": "Like-named read-outs stand apart in the source and are kept apart here.",
  "data": [
    {"molecule": "O=c1[nH]cc(F)c(=O)[nH]1", "note": "[5FU]", "values": [
      {"measurement": "monocyte TNF levels", "setting": "[1]", "value": "no effect"}
    ]},
    {"molecule": "CC[C@@]1(O)C(=O)OCc2c1cc1n(c2=O)Cc2cc3c(CN(C)C)c(O)ccc3nc2-1", "note": "[Topotecan]", "values": [
      {"measurement": "TNF alpha production / levels", "setting": "[2]", "value": "no effect on TNF alpha levels"}
    ]},
    {"molecule": "N.N.[Cl][Pt][Cl]", "note": "[cisplatin]", "values": [
      {"measurement": "TNF alpha production / levels", "setting": "[2]", "value": "increased TNF alpha production"}
    ]},
    {"molecule": "C[C@@H]1C[C@@H]([C@H](O)CC2CC(=O)NC(=O)C2)C(=O)[C@@H](C)C1", "note": "[cycloheximide]", "values": [
      {"measurement": "effect on TNFα cytotoxicity", "setting": "[3]; cycloheximide 5 μg/mL with 10 ng/mL TNFα, 24 hours", "value": "only a small additional effect"},
      {"measurement": "effect on TNFα cytotoxicity", "setting": "[4]; MCF-7TXT10 cells, cycloheximide 5 μg/mL with 10 ng/mL TNFα, 24 hours", "value": "restored TNFα's ability to be cytotoxic"}
    ]},
    {"molecule": "CC(=O)O[C@@]12CO[C@@H]1C[C@H](O)[C@@]1(C)C(=O)[C@H](O)C3=C(C)[C@@H](OC(=O)[C@H](O)[C@@H](NC(=O)OC(C)(C)C)c4ccccc4)C[C@@](O)([C@@H](OC(=O)c4ccccc4)[C@H]21)C3(C)C", "note": "[docetaxel]", "values": [
      {"measurement": "plasma levels of docetaxel", "setting": "[5]", "value": "10 to 75", "unit": "nM"},
      {"measurement": "p65 and p50 subunit binding to the NF-κB sequence", "setting": "[6]", "value": "even higher levels"},
      {"measurement": "sTNFα levels secreted", "setting": "[7]; A2780CC cells, 0.1 to 1 nM docetaxel, versus untreated", "value": "not significantly changed"},
      {"measurement": "TNFα produced in response to docetaxel", "setting": "[7]; A2780 cells, compared with MCF-7CC cells, 48 hours", "value": "even greater amounts"},
      {"measurement": "TNFα production and sTNFα release", "setting": "[7]; ovarian tumor cells, docetaxel 3 to 45 nM", "value": "can stimulate TNFα production and sTNFα release"},
      {"measurement": "sTNFα secretion", "setting": "[8]; MCF-7TXT8 cells, 50 nM docetaxel versus untreated", "value": "no significant difference"},
      {"measurement": "further increase of sTNFα production", "setting": "[8]; MCF-7TXT9 cells, 50 nM docetaxel versus untreated", "value": 1.62, "unit": "fold"},
      {"measurement": "further increase of sTNFα production", "setting": "[8]; MCF-7TXT10 cells, 50 nM docetaxel versus untreated", "value": 1.27, "unit": "fold"},
      {"measurement": "sTNFα levels", "setting": "[8]; MCF-7TXT11 cells", "value": "returned to basal levels"},
      {"measurement": "sTNFα levels", "setting": "[8]; MCF-7TXT12 cells", "value": "returned to basal levels"},
      {"measurement": "sTNFα levels in media", "setting": "[9]; MCF-7CC cells, 3 nM docetaxel, 48 hours", "value": "significantly elevated"},
      {"measurement": "sTNFα secretion", "setting": "[9]; MCF-7CC cells, 50 nM docetaxel versus untreated", "value": "no significant difference"},
      {"measurement": "sTNFα levels secreted", "setting": "[9]; MCF-7CC cells, 0.1 to 1 nM docetaxel, versus untreated", "value": "not significantly changed"},
      {"measurement": "TNFα production and sTNFα release", "setting": "[9]; breast tumor cells, docetaxel 3 to 45 nM", "value": "can stimulate TNFα production and sTNFα release"},
      {"measurement": "TNFα expression", "setting": "[10]; same study", "value": "no effect"},
      {"measurement": "serum levels of proinflammatory cytokines, including TNFα", "setting": "[11]", "value": "increased"},
      {"measurement": "docetaxel sensitivity", "setting": "[4]; MCF-7TXT8 cells (selected to 1.1 nM docetaxel) versus MCF-7CC", "value": "did not affect docetaxel sensitivity"},
      {"measurement": "resistance to docetaxel (IC50 ratio to MCF-7CC)", "setting": "[4]; MCF-7TXT9 cells (selected to 3.33 nM docetaxel)", "value": 11.4, "unit": "fold"},
      {"measurement": "docetaxel resistance factor", "setting": "[4]; MCF-7TXT10 cells (selected to 5 nM docetaxel)", "value": 16.6},
      {"measurement": "docetaxel resistance factor", "setting": "[4]; MCF-7TXT11 cells (selected to 15 nM docetaxel)", "value": 32.8},
      {"measurement": "docetaxel resistance factor", "setting": "[4]; MCF-7TXT12 cells (selected to 45 nM docetaxel)", "value": 184},
      {"measurement": "cross resistance to docetaxel", "setting": "[12]", "value": 46, "unit": "fold"},
      {"measurement": "resistance to docetaxel", "setting": "[13]", "value": "~4000", "unit": "fold"},
      {"measurement": "sTNFα levels versus MCF-7CC", "setting": "[14]", "value": "No differences"}
    ]},
    {"molecule": "COc1cccc2c1C(=O)c1c(O)c3c(c(O)c1C2=O)C[C@@](O)(C(=O)CO)C[C@@H]3O[C@H]1C[C@H](N)[C@H](O)[C@H](C)O1", "note": "[doxorubicin]", "values": [
      {"measurement": "TNFα expression", "setting": "[7]; A2780 ovarian tumour cells, FIG. 1E", "value": "induces TNFα expression"},
      {"measurement": "TNFα expression", "setting": "[9]; MCF-7 breast tumour cells, FIG. 1D", "value": "induces TNFα expression"},
      {"measurement": "monocyte TNF levels", "setting": "[1]", "value": "no effect"},
      {"measurement": "TNF alpha production / levels", "setting": "[2]", "value": "increased TNF alpha production"}
    ]},
    {"molecule": "CO[C@@]12[C@H](COC(N)=O)C3=C(C(=O)C(C)=C(N)C3=O)N1C[C@@H]1N[C@@H]12", "note": "[mitomycin C]", "values": [
      {"measurement": "monocyte TNF levels", "setting": "[1]", "value": "no effect"}
    ]},
    {"molecule": "CC(=O)O[C@H]1C(=O)[C@@]2(C)[C@H]([C@H](OC(=O)c3ccccc3)[C@]3(O)C[C@H](OC(=O)[C@H](O)[C@@H](NC(=O)c4ccccc4)c4ccccc4)C(C)=C1C3(C)C)[C@]1(OC(C)=O)CO[C@@H]1C[C@@H]2O", "note": "[paclitaxel]", "values": [
      {"measurement": "sTNFα production", "setting": "[7]; A2780 cells, paclitaxel at concentrations 15 nM, compared with docetaxel", "value": "even higher levels"},
      {"measurement": "sTNFα release", "setting": "[7]; ovarian tumor cells, paclitaxel 5 and 15 nM", "value": "dramatically increase sTNFα release"},
      {"measurement": "sTNFα release", "setting": "[10]; levels unachievable in patients", "value": "increase sTNFα release"},
      {"measurement": "cross-resistance to paclitaxel, resistance factor", "setting": "[15]; selection dose 11", "value": 148},
      {"measurement": "cross-resistance to paclitaxel, resistance factor", "setting": "[15]; selection dose 12", "value": 251},
      {"measurement": "TNFα production", "setting": "[16]; 4 hours following treatment, paclitaxel 10 nM to 10 μM", "value": "did not induce increased TNFα production"},
      {"measurement": "NF-κB activity", "setting": "[16]", "value": "induced NF-κB activity"},
      {"measurement": "paclitaxel resistance factor", "setting": "[17]; maximally tolerated dose of paclitaxel", "value": 42}
    ]},
    {"molecule": "CC[C@]1(O)C[C@@H]2CN(CCc3c([nH]c4ccccc34)[C@@](C(=O)OC)(c3cc4c(cc3OC)N(C)[C@H]3[C@@](O)(C(=O)OC)[C@H](OC(C)=O)[C@]5(CC)C=CCN6CC[C@]43[C@@H]65)C2)C1", "note": "[vinblastine]", "values": [
      {"measurement": "TNF alpha production / levels", "setting": "[2]", "value": "increased TNF alpha production"}
    ]},
    {"molecule": "TNFα", "values": [
      {"measurement": "colony formation", "setting": "[3]; TNFα 50 or 100 ng/mL", "value": "very strongly reduced"},
      {"measurement": "reduction of colony formation", "setting": "[4]; MCF-7TXT8 cells, TNFα 10 ng/ml", "value": "66.6±1.7", "unit": "%"},
      {"measurement": "colony formation in absence or presence of TNFα", "setting": "[4]; MCF-7TXT10 cells, TNFα 10 ng/mL", "value": "significant resistance to TNFα"},
      {"measurement": "reductions in colony formation", "setting": "[4]; MCF-7TXT10 cells, TNFα 50 ng/mL or 100 ng/mL, compared with MCF-7CC", "value": "much smaller"},
      {"measurement": "colony formation", "setting": "[4]; MCF-7TXT12 cells, TNFα 10 ng/mL", "value": "increased colony formation"},
      {"measurement": "NF-κB activity", "setting": "[16]", "value": "induced NF-κB activity"},
      {"measurement": "colony formation", "setting": "[17]; TNFα 50 or 100 ng/ml, relative to MCF-7TXT10", "value": "strong reductions in colony formation"}
    ]}
  ]
}
